Reference: PubChem BioAssay (NCI)
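1) Cells in 96-well plates. 2) Compound, 48 h, 5 concentrations. 3) Linear interpolation between surrounding doses. 4) Unreached endpoint = highest concentration. Here, GI50 denotes the concentration required for 50% inhibition of growth. TGI denotes the concentration required for complete inhibition of growth.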

Columns and labels:
Experiment in all cases: DTP human tumour cell line panel, 48 h; in the data active = GI50 below about 0.43 µM; inactive = the rest
[1] = system: T-47D breast
[2] = system: UACC-257 melanoma
[3] = system: SR leukemia
[4] = system: NCI-H23 lung
[5] = system: MOLT-4 leukemia
[6] = system: CAKI-1 renal
[7] = system: BT-549 breast
[8] = system: SNB-19 CNS
[9] = system: HCT-116 colon
[10] = system: HL-60(TB) leukemia
[11] = system: U251 CNS
[12] = system: SF-268 CNS
[13] = system: KM12 colon
[14] = system: IGROV1 ovarian
[15] = system: CCRF-CEM leukemia
[16] = system: MCF7 breast
[17] = system: EKVX NSCLC
[18] = system: COLO 205 colon
[19] = system: A549 NSCLC
[20] = system: M14 melanoma
[21] = system: K-562 leukemia
[22] = system: OVCAR-4 ovarian
[23] = system: OVCAR-5 ovarian
[24] = system: SK-MEL-2 melanoma
[25] = system: OVCAR-8 ovarian
[26] = system: RXF 393 renal
[27] = system: MDA-MB-231 breast
[28] = system: SN12C renal
[29] = system: UACC-62 melanoma
[30] = system: UO-31 renal
[31] = system: NCI-H460 lung
[32] = system: MALME-3M melanoma
[33] = system: PC-3 prostate
[34] = system: HOP-62 NSCLC
[35] = system: SW-620 colon
[36] = system: SF-539 CNS
[37] = system: TK-10 renal
[38] = system: SNB-75 CNS
[39] = system: SK-MEL-5 melanoma
[40] = system: HCT-15 colon
[41] = system: A498 renal
[42] = system: OVCAR-3 ovarian
[43] = system: SF-295 CNS
[44] = system: MDA-MB-435
[45] = system: HCC-2998 colon
[46] = system: SK-MEL-28 melanoma
[47] = system: SK-OV-3 ovarian
[48] = system: 786-0 renal
[49] = system: NCI/ADR-RES ovarian
[50] = system: DU-145 prostate
[51] = system: HT29 colon
[52] = system: LOX IMVI melanoma
[53] = system: NCI-H226 lung
[54] = system: ACHN renal

COc1cc(C)cc2c1OC(c1ccccc1)CC2=O (stereo not drawn)
inactive: GI50 [1] > 100 µM | GI50 [2] > 100 µM | GI50 [3] > 100 µM | GI50 [4] > 100 µM | GI50 [5] > 100 µM | GI50 [6] > 100 µM | GI50 [7] > 100 µM | GI50 [8] > 100 µM | GI50 [9] > 100 µM | GI50 [10] > 100 µM | GI50 [11] > 100 µM | GI50 [12] > 100 µM | GI50 [13] > 100 µM | GI50 [14] > 100 µM | GI50 [15] > 100 µM | GI50 [16] > 100 µM | GI50 [17] > 100 µM | GI50 [18] > 100 µM | GI50 [19] > 100 µM | GI50 [20] > 100 µM | GI50 [21] > 100 µM | GI50 [22] > 100 µM | GI50 [23] > 100 µM | GI50 [24] > 100 µM | GI50 [25] > 100 µM | GI50 [26] > 100 µM | GI50 [27] > 100 µM | GI50 [28] > 100 µM | GI50 [29] > 100 µM | GI50 [30] > 100 µM | GI50 [31] > 100 µM | GI50 [32] > 100 µM | GI50 [33] > 100 µM | GI50 [34] > 100 µM | GI50 [35] > 100 µM | GI50 [36] > 100 µM | GI50 [37] > 100 µM | GI50 [38] > 100 µM | GI50 [39] > 100 µM | GI50 [40] > 100 µM | GI50 [41] > 100 µM | GI50 [42] > 100 µM | GI50 [43] > 100 µM | GI50 [44] > 100 µM | GI50 [45] > 100 µM | GI50 [46] > 100 µM | GI50 [47] > 100 µM | GI50 [48] > 100 µM | GI50 [49] > 100 µM | GI50 [50] > 100 µM | GI50 [51] > 100 µM | GI50 [52] > 100 µM | GI50 [53] > 100 µM | GI50 [54] > 100 µM
> 100 µM: TGI [1] | TGI [2] | TGI [3] | TGI [4] | TGI [5] | TGI [6] | TGI [7] | TGI [8] | TGI [9] | TGI [10] | TGI [11] | TGI [12] | TGI [13] | TGI [14] | TGI [15] | TGI [16] | TGI [17] | TGI [18] | TGI [19] | TGI [20] | TGI [21] | TGI [22] | TGI [23] | TGI [24] | TGI [25] | TGI [26] | TGI [27] | TGI [28] | TGI [29] | TGI [30] | TGI [31] | TGI [32] | TGI [33] | TGI [34] | TGI [35] | TGI [36] | TGI [37] | TGI [38] | TGI [39] | TGI [40] | TGI [41] | TGI [42] | TGI [43] | TGI [44] | TGI [45] | TGI [46] | TGI [47] | TGI [48] | TGI [49] | TGI [50] | TGI [51] | TGI [52] | TGI [53] | TGI [54]
